This test addresses T1, AtGID1c in the presence of RGA (Arabidopsis thaliana, UniProt Q940G6).
T1 construct: made in house; host or cells: E. coli (stated for AtGID1)
T1 sequence (Q940G6 1-344): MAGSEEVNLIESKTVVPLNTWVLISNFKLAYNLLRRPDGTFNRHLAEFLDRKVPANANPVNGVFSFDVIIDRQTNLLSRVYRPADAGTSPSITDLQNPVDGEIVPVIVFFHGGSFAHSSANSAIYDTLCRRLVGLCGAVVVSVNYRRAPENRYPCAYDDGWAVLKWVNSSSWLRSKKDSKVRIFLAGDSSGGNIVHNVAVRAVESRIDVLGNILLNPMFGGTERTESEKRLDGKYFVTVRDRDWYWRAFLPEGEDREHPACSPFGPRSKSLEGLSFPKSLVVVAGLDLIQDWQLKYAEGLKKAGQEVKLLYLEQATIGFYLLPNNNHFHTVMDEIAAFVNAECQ
T1 sequence (Q9SLH3 1-587 partner): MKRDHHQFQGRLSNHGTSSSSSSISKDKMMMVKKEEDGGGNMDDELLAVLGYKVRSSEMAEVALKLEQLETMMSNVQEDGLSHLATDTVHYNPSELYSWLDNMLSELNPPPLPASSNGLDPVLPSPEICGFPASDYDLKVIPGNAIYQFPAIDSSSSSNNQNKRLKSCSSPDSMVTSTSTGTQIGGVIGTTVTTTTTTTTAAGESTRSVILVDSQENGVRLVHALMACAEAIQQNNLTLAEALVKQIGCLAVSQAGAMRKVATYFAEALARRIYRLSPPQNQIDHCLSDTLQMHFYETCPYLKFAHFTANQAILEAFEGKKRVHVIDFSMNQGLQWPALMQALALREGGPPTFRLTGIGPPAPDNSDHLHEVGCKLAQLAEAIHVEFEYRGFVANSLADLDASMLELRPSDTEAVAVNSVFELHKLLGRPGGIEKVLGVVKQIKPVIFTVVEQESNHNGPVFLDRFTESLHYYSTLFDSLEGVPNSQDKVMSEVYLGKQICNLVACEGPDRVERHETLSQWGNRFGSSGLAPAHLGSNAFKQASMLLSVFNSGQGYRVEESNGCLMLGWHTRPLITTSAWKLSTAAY
Put plainly: Scatchard analysis of AtGID1c-GA binding in the presence of RGA. As for the experimental part:
Panel A) depicts AtGID1-AtDELLA interaction in the presence of GA in two types of yeast hybrid (Y2H) assays. Each AtGID1 was used as a bait while AtDELLA was a prey. GA4 (10^−5 M) was added to the medium. The bars indicates β-galactosidase activity when o-nitrophenol-β-D-galactopyranoside was used as a substrate (Assay B). The growth of each transformant in the defined medium for 2 days (Assay A) is shown beneath of each bar graph. The experiment was carried out in quadruplicate. The SD value shown in the figure was determined from three measurements. Panel B) depicts the dose response in AtGID1-RGA interaction in Assay B of Y2H. GA4 (10^−5 to 10^−9 M) was added to the medium. The experiment was conducted in […]. The SD value shown in the figure was determined from three measurements. Panel C) depicts the results of an evaluation of the in vitro GA-binding potency of AtGID1 using AtDELLA. […] GAI (G) or RGA (R) was added, and then the GA-binding activity in each reaction mixture was measured according to the standard method. […] The SD value was determined from three measurements. […]
Next, whether AtDELLAs exert some kind of influence on the GA-binding activity of AtGID1s was examined in vitro. After labeled 16,17-dihydro-GA4 and AtGID1s were combined, AtDELLAs were added to the solutions, and the GA-binding activity was measured. […]

Drawing on patent publication US7915050B2, “Regulatory genes for plant differentiation and growth, and use of the same” (National University Corporation Nagoya University, priority 2005, dated 2011), this text covers Kd for 1 molecule.

What is called Kd is the constant that tells how readily two partners part at equilibrium.

As to `CC1C[C@]23C[C@H]1CCC2[C@]12CC[C@H](O)[C@](C)(C(=O)O1)[C@H]2[C@@H]3C(=O)O` (stereo partly shown) [H2-GA4, 16,17-dihydro-GA4], the Kd was 12 nM.
